Experimental data published in patent publication US8134015B2, “Compound inhibiting in vivo phosphorous transport and medicine containing the same” (Kyowa Hakko Kirin Co., Ltd., priority 2003, dated 2012).
pIC50: −log10 of the molar value.

Molecular target: T1, rat NaPi-2b (Rattus norvegicus, UniProt Q9JJ09)
T1 construct: expressed in transfected cells; host or cells: Xenopus oocytes injected with cRNA
T1 sequence (Q9JJ09 1-695): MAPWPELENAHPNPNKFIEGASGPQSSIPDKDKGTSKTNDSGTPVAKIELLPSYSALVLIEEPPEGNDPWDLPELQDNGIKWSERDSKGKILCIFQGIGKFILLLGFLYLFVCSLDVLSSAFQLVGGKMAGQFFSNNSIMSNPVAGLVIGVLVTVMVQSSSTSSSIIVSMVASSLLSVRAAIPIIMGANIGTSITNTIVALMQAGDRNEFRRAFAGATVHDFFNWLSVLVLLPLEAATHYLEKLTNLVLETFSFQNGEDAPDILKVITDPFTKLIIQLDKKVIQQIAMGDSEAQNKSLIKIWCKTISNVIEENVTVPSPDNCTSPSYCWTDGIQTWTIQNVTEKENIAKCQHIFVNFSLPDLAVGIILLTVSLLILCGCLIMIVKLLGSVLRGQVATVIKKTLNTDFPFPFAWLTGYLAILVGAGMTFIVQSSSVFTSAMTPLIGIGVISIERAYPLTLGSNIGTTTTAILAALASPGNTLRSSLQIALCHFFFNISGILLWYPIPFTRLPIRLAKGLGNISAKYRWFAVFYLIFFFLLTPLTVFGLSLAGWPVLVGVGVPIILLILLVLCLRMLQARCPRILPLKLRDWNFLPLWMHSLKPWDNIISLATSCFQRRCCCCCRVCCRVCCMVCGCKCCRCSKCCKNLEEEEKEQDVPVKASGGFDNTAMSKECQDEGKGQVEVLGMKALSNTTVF
Test: Sodium-dependent phosphate uptake of Xenopus oocytes which expressed NaPi-2b (32P)
Assay type: cell-based
Conditions: for pIC50: Xenopus oocytes expressing rat NaPi-2b, 32P radioactive phosphorus, read-out: IC50 (phosphate uptake inhibitory activity); for inhibition at 300 µM: phosphate uptake, oocytes expressing rat NaPi-2b, determined from inhibition curve
How it was run: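 Rat small-intestine NaPi-2b cRNA injected into Xenopus oocytes, expressed for 2 days. Sodium-dependent phosphate uptake measured with 32P; % inhibition at 300 and 100 μM taken from the same inhibition curve.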

Compound	pIC50	inhibition at 300 µM [%]
O=C(Nc1ccccc1C(=O)N/N=C/c1cccc(F)c1)c1ccc(F)cc1 [Compound 76, 4-Fluoro-N-[2-(3-fluoro-benzylidene-hydrazinocarbonyl)-phenyl]-benzamide]	4.88	
CCOc1ccc(C(=O)Nc2ccc(Br)cc2C(=O)N/N=C/c2cccc(F)c2)cc1 [Compound 501, N-[4-Bromo-2-(3-fluoro-benzylidene-hydrazinocarbonyl)-phenyl]-4-ethoxy-benzamide]	4.64	
COc1ccc(/C=N/NC(=O)c2c(C)csc2NC(=O)c2cccc(CSCCCO)c2)cc1 [Compound 562, 3-(3-Hydroxy-propylsulfanylmethyl)-N-[3-(4-methoxy-benzylidene-hydrazinocarbonyl)-4-methyl-thiophen-2-yl]-benzamide]	> 6.00	
Cc1cc(/C=N/NC(=O)c2ccccc2NC(=O)c2ccncc2)oc1C [Compound 219, N-[2-(4,5-Dimethyl-furan-2-ylmethylene-hydrazinocarbonyl)-phenyl]-isonicotinamide]	5.04	
O=C(Nc1ccc(Cl)cc1C(=O)N/N=C/c1ccc(Cl)c(C(F)(F)F)c1)c1cccc(CS(=O)(=O)Cc2ccco2)c1 [Compound 688, N-[4-Chloro-2-(4-chloro-3-trifluoromethyl-benzylidene-hydrazinocarbonyl)-phenyl]-3-(furan-2-ylmethanesulfonylmethyl)-benzamide]	> 5.52	
COc1ccc(/C=N/NC(=O)c2ccccc2NC(=O)c2ccc(OC)c(OC)c2)cc1Br [Compound 34, N-[2-(3-Bromo-4-methoxy-benzylidene-hydrazinocarbonyl)-phenyl]-3,4-dimethoxy-benzamide]	5.82	
O=C(Nc1ccc(Br)cc1C(=O)N/N=C/c1cccc(F)c1)c1cccnc1 [Compound 172, N-[4-Bromo-2-(3-fluoro-benzylidene-hydrazinocarbonyl)-phenyl]-nicotinamide]	5.56	
COc1ccc(C(=O)Nc2ccccc2C(=O)N/N=C/c2cccc(C)n2)cc1OC [Compound 247, 3,4-Dimethoxy-N-[2-(6-methyl-pyridin-2-ylmethylene-hydrazinocarbonyl)-phenyl]-benzamide]		34.8
Cc1csc(NC(=O)c2cccc(CSc3nc[nH]n3)c2)c1C(=O)N/N=C/c1cccc(F)c1 [Compound 554, N-[3-(3-Fluoro-benzylidene-hydrazinocarbonyl)-4-methyl-thiophen-2-yl]-3-(1H-[1,2,4]triazol-3-ylsulfanylmethyl)-benzamide]	5.84	
Cc1cccc(/C=N/NC(=O)c2cc(Br)ccc2NC(=O)c2ccc(CSc3cccc(F)c3)cc2)c1 [Compound 357, N-[4-Bromo-2-(3-methyl-benzylidene-hydrazinocarbonyl)-phenyl]-4-(3-fluoro-phenylsulfanylmethyl)-benzamide]		65.8
O=C(Nc1sc2c(c1C(=O)N/N=C/c1cccc(F)c1)CCCC2)c1cccc(CN2CCC(N3CCCCC3)CC2)c1 [Compound 618, 3-[1,4′]Bipiperidinyl-1′-ylmethyl-N-[3-(3-fluoro-benzylidene-hydrazinocarbonyl)-4,5,6,7-tetrahydro-benzo[b]thiophen-2-yl]-benzamide]	5.37	
O=C(Nc1ccc(OCCCCF)cc1C(=O)N/N=C/c1ccc(Cl)c(C(F)(F)F)c1)c1cccc(CSCCO)c1 [Compound 1054, N-[2-(4-Chloro-3-trifluoromethyl-benzylidene-hydrazinocarbonyl)-4-(4-fluoro-butoxy)-phenyl]-3-(2-hydroxy-ethylsulfanylmethyl)-benzamide]	> 6.00	
COc1ccc(C(=O)Nc2ccc(Br)cc2C(=O)N/N=C/c2cc(C)c(C)o2)cc1OC [Compound 202, N-[4-Bromo-2-(4,5-dimethyl-furan-2-ylmethylene-hydrazinocarbonyl)-phenyl]-3,4-dimethoxy-benzamide]	5.50	
Cc1ccc(/C=N/NC(=O)c2cc(Cl)ccc2NC(=O)c2cccnc2)cc1 [Compound 187, N-[4-Chloro-2-(4-methyl-benzylidene-hydrazinocarbonyl)-phenyl]-nicotinamide]	5.10	
O=C(Nc1ccc(Br)cc1C(=O)N/N=C/c1ccc(Cl)c(C(F)(F)F)c1)c1ccc(CSCCO)cc1 [Compound 266, N-[4-Bromo-2-(4-chloro-3-trifluoromethyl-benzylidene-hydrazinocarbonyl)-phenyl]-4-(2-hydroxy-ethylsulfanylmethyl)-benzamide]	> 6.00	
Cc1ccc(CNNC(=O)c2cc(Cl)ccc2NC(=O)c2cccc(CSCCO)c2)cc1 [Compound 547, N-{4-Chloro-2-[N′-(4-methyl-benzyl)-hydrazinocarbonyl]-phenyl}-3-(2-hydroxy-ethylsulfanylmethyl)-benzamide]		66.6
Cc1cccc(/C=N/NC(=O)c2ccccc2NC(=O)c2cccc(F)c2)c1 [Compound 83, 3-Fluoro-N-[2-(3-methyl-benzylidene-hydrazinocarbonyl)-phenyl]-benzamide]	5.53	
Cc1ccc(/C=N/NC(=O)c2cc(Br)ccc2NC(=O)c2cccc(CSc3nc[nH]n3)c2)cc1C [Compound 267, N-[4-Bromo-2-(3,4-dimethyl-benzylidene-hydrazinocarbonyl)-phenyl]-3-(1H-[1,2,4]triazol-3-ylsulfanylmethyl)-benzamide]	6.37	

Other lines, results leading:

pIC50	inhibition at 300 µM [%]	Compound
4.96		COCCOc1cc(NC(=O)c2cccc(CSCC(O)CO)c2)c(C(=O)N/N=C/c2ccc(C)c(C)c2)cc1OCCOC (centres unmarked) [Compound 1015, 3-(2,3-Dihydroxy-propylsulfanylmethyl)-N-[2-(3,4-dimethyl-benzylidene-hydrazinocarbonyl)-4,5-bis-(2-methoxy-ethoxy)-phenyl]-benzamide]
4.89		COc1ccc(/C=N/NC(=O)c2cc(Br)ccc2NC(=O)c2ccc(CN(CC(C)O)CC(C)O)cc2)cc1 (centres unmarked) [Compound 722, 4-{[Bis-(2-hydroxy-propyl)-amino]-methyl}-N-[4-bromo-2-(4-methoxy-benzylidene-hydrazinocarbonyl)-phenyl]-benzamide]
> 6.00		Cc1ccc(/C=N/NC(=O)c2cc3ccccc3cc2NC(=O)c2cccc(CN(CC(C)O)CC(C)O)c2)cc1C (centres unmarked) [Compound 961, 3-{[Bis-(2-hydroxy-propyl)-amino]-methyl}-N-[3-(3,4-dimethyl-benzylidene-hydrazinocarbonyl)-naphthalen-2-yl]-benzamide]
> 5.52		O=C(Nc1cc2ccccc2cc1C(=O)N/N=C/c1cccc(F)c1)c1cccc(CN2CCN(CCO)CC2)c1 [Compound 969, N-[3-(3-Fluoro-benzylidene-hydrazinocarbonyl)-naphthalen-2-yl]-3-[4-(2-hydroxy-ethyl)-piperazin-1-ylmethyl]-benzamide]
4.97		CCSCCNCc1ccc(C(=O)Nc2ccc(Br)cc2C(=O)N/N=C/c2cccc(F)c2)cc1 [Compound 768, N-[4-Bromo-2-(3-fluoro-benzylidene-hydrazinocarbonyl)-phenyl]-4-[(2-ethylsulfanyl-ethylamino)-methyl]-benzamide]
4.99		CCN1CC(NCc2ccc(C(=O)Nc3ccc(Br)cc3C(=O)N/N=C/c3ccc(OC)cc3)cc2)CN1CC [Compound 756, N-[4-Bromo-2-(4-methoxy-benzylidene-hydrazinocarbonyl)-phenyl]-4-[(1,2-diethyl-pyrazolidin-4-ylamino)-methyl]-benzamide]
4.73		O=C(Nc1ccc(N2CCN(CCO)CC2)cc1C(=O)N/N=C/c1ccc(Cl)c(C(F)(F)F)c1)c1cccc(CSCCO)c1 [Compound 923, N-{2-(4-Chloro-3-trifluoromethyl-benzylidene-hydrazinocarbonyl)-4-[4-(2-hydroxy-ethyl)-piperazin-1-yl]-phenyl}-3-(2-hydroxy-ethylsulfanylmethyl)-benzamide]
4.95		COc1cccc(/C=N/NC(=O)c2cc(Br)ccc2NC(=O)c2ccc(CNCCCN(C)c3ccccc3)cc2)c1 [Compound 763, N-[4-Bromo-2-(3-methoxy-benzylidene-hydrazinocarbonyl)-phenyl]-4-{[3-(methyl-phenyl-amino)-propylamino]-methyl}-benzamide]
5.04		CCN(CC)CCN(C)Cc1cccc(C(=O)Nc2sc3c(c2C(=O)N/N=C(\C)c2cccc(F)c2)CCCC3)c1 [Compound 1003, 3-{[(2-Diethylamino-ethyl)-methyl-amino]-methyl}-N-{3-[1-(3-fluoro-phenyl)-ethylidene-hydrazinocarbonyl]-4,5,6,7-tetrahydro-benzo[b]thiophen-2-yl}-benzamide]
5.10		COc1ccc(/C(C)=N/NC(=O)c2cc(Br)ccc2NC(=O)c2cccc(CN(CC(C)O)CC(C)O)c2)cc1 (centres unmarked) [Compound 997, 3-{[Bis-(2-hydroxy-propyl)-amino]-methyl}-N-{4-bromo-2-[1-(4-methoxy-phenyl)-ethylidene-hydrazinocarbonyl]-phenyl}-benzamide]
5.47		COc1ccc(/C=N/NC(=O)c2c(NC(=O)c3cccc(CN(CC(C)O)CC(C)O)c3)sc3ccccc23)cc1 (centres unmarked) [Compound 797, 3-{[Bis-(2-hydroxy-propyl)-amino]-methyl}-N-[3-(4-methoxy-benzylidene-hydrazinocarbonyl)-benzo[b]thiophen-2-yl]-benzamide]
